Assay results: US6924143B2, “Method for increasing the growth rate of cells in static liquid media” (priority 2001, dated 2005)

Tested on: U. maydis wildtype strains
Assay: Growth-assay of U. maydis strains in 384 well MTPs (FIG. 3A, absorbance at OD620)
Type: cell-based, Ustilago maydis
Details: Hygromycin B 200 μg/ml, initial OD620 0,18, 1x minimal medium with 0,1% Kelzan, 30° C.
Procedure: FIG. 3 illustrates growth-assay of U. maydis strains in 384 well MTPs. • A: The kinetik of the absorbance at OD620 for U. maydis wildtype strains was determined in a 384 well MTP using a Tecan ultra reader (rombus). As control served a strain, to which Hygromycin B was added in a concentration of 200 μg/ml (crosses). The initial OD620 for both strains was 0,18. […] GFP fluorescence of a U. maydis strain, in which GFP expression is controlled by the strong constitutive OMA promoter (squares), was determined in a Tecan plus reader. The excitation wavelength was 485 nm, the emission wavelength was 535 nm. […] Compared to lower temperatures, the increase in OD620 and the increase in fluorescence was faster. Experimental procedures: U. maydis strains where treated as described before in the Examples. The solution contained 1×minimal medium, 0,1% Kelzan and the assay was performed at 30° C. All experiments where repeated in independent duplicates.

With `CN[C@H]1C[C@@H](N)[C@H](O)[C@@H](O[C@@H]2O[C@H](CO)[C@H](O)[C@@H]3OC4(O[C@H]23)O[C@H]([C@@H](N)CO)[C@H](O)[C@H](O)[C@H]4O)[C@@H]1O` (stereo partly shown) [Hygromycin B] the “course of optical density (OD620) over time” value was “continuous decrease in optical density”.
